In the OPERA property sets (Mansouri et al. 2018) one finds logP data, which are given here for 53 compounds.

Broadly, the logP is the decadic logarithm of the partition coefficient of the neutral form, usually between octanol and water. Lower therefore signals lower lipophilicity. Turning to `COc1cc(S(C)=O)ccc1-c1cn2ccnc(OC)c2n1` (stereo not drawn), the logP came to 1.49.
The figure for `COc1ccc(S(I)=C(N(C)C)N(C)C)cc1` (stereo not drawn) is -0.51.
The compound `O=C1C(=O)c2ccccc2-c2ccccc21` showed a logP of 2.52.
In the case of `O=C(c1ccccc1)c1ccc(O)cc1` it was 3.07.
In the case of `Cc1ccccc1C#N` it was 2.21; in that of `CCCCCCOC(=O)c1ccc(O)cc1`, 4.35; in that of `NS(=O)(=O)c1ccc(S(N)(=O)=O)cc1`, -0.96.
The figure for `O=[N+]([O-])c1nccn1CC(O)CN1CCCCC1` (stereo not drawn) is 1.
Take `CC(C)CC(N)C(=O)OCn1ncc2c(=O)[nH]cnc21` (stereo not drawn): the logP was determined as 0.19.
The compound `NNC(=O)c1cccc(Cl)c1` had a log partition coefficient (logP) of 1.18.
The figure for `CC(=O)C(=Cc1ccccc1C)C(C)=O` is 1.98.
The figure for `CCCC(C)C1(CC)C(=O)N=C(O)NC1=O` (stereo not drawn) is 2.1.
`CCOC(=O)C(=Cc1cccc(OCC)c1)C(C)=O` returned a logP of 2.71.
The figure for `O=C(c1ccccc1)c1ccccn1` is 1.88; for `O=C1OC(c2ccccc2)c2ccccc21` (stereo not drawn) it is 2.64.
The figure for `Cc1ccc(OC(=O)c2ccc(N)cc2O)cc1` is 3.38; for `N#CCCOc1ccccc1` it is 1.61; for `O=C1C=C(N2CCCC2)C(=O)c2ccccc21` it is 2.89.
The figure for `COc1ccc2c(c1)OC(C)(C)C=C2` is 3.35; for `C1=Cc2ccccc2C1` it is 2.92.
As to `O=C(c1ccco1)C(O)c1ccco1` (stereo not drawn), the logP was 0.54.
In the case of `COc1cc(C(C)(C)C)c(OC)cc1CC(C)N` (stereo not drawn) it was 3.91; in that of `CN(C)c1nc(N)nc(N(C)C)n1`, 1.2.
In the case of `CC(=O)C(C)C`, the logP stood at 0.84.
`OCCNc1ccccc1` registered a logP of 0.82.
In the case of `CC(=O)CC(C)=O` it was 0.4; in that of `O=C(C=Cc1ccccc1)OCC=Cc1ccccc1`, 4.45; in that of `CC(C)(C)c1cccc(OCC(=O)O)c1`, 2.96.
In the case of `c1cnc2ccc3ncccc3c2c1` it was 2.05; in that of `O=C1CCC(c2ccccc2)(C2CCN(Cc3ccccc3)CC2)C(=O)N1` (stereo not drawn), 3.55; in that of `O=c1[nH]cnc2ccccc12`, 0.77.
The figure for `C#C[C@]1(O)CC[C@H]2[C@@H]3CCc4cc(O)ccc4[C@H]3CC[C@@]21C` is 3.67.
Compound `Cc1n[nH]c(C(=O)Nc2ccccc2)c1[N+](=O)[O-]` yielded a log partition coefficient (logP) of 1.81.
In the case of `O=C(Oc1ccccc1)Oc1ccccc1` it was 3.28.
The figure for `CNC(=O)Oc1ccc(C(C)(C)C)cc1` is 3.06.
Compound `CC1(O)CC23C(O)C1CCC2(O)C(C)(O)C1C2OC2C(C)(C)C1(O)C(O)C3O` (stereo not drawn) registered a logP of -0.57.
The figure for `O=C(NN=Cc1ccoc1)Nc1ccccc1` is 2.52.
`C=CCCBr` returned a logP of 2.53.
The figure for `O=[N+]([O-])c1cc[n+]([O-])c2c(F)cccc12` is 1; for `CC(=O)Nc1ccccn1` it is 0.61.
The figure for `O=NN1CCCCC1` is 0.36; for `CC(=O)OCC1=C(C(=O)O)N2C(=O)[C@@H](NC(=O)CC#N)[C@H]2SC1` it is -0.45; for `O=[N+]([O-])c1ccccc1CO` it is 1.24.
Turning to `c1ccc2cc3ccccc3cc2c1`, the logP worked out at 4.45.
The figure for `Cc1onc(-c2ccccc2)c1C(=O)NC1C(=O)N2C1SC(C)(C)C2C(=O)O` (stereo not drawn) is 2.38.
`CCCCCOC(=O)Nc1ccccc1` came in with a logP of 3.8.
Compound `CC(=O)Oc1ccccc1I` registered a lipophilicity (logP) of 2.55.
The compound `Cc1cccc(C)c1[N+](=O)[O-]` came in with a logP of 2.95.
The figure for `Brc1ccc2cccnc2c1` is 2.92.
In the case of `COC(=O)C1C(C=C(Cl)Cl)C1(C)C` (stereo not drawn) it was 3.63.
In the case of `CC1CCCCC1` it was 3.61; in that of `CN(C)c1ccc(Cl)nn1`, 0.98; in that of `CNC(=O)OCc1cccc(COC(=O)NC)n1`, 0.24.
